Experimental data: patent publication US9902701B2, “Pyridazones and triazinones for treatment and prophylaxis of hepatitis B virus infection” (priority 2014, dated 2018)

system: HBsAg; experiment: HBsAg assay: chemiluminescence immunoassay (CLIA) of secreted HBsAg in supernatant of HepG2.2.15 cells; format: cell-based, HBV; details: Hepatitis B virus
Description: HepG2.2.15 cells (Acs et al. Proc Natl Acad Sci USA, 84, (1987), 4641-4), a constitutively HBV-expressing cell line were cultured in DMEM+Glutamax-I medium (Invitrogen, Carlsbad, Calif., USA), supplemented with 10% fetal bovine serum (Invitrogen) and G418 (Invitrogen) at a final concentration of 200 mg/L and maintained in 5% CO2 at 37° C.
HepG2.2.15 cells were seeded in duplicate into white, 96-well plates at 1.5×10^4 cells/well. The cells were treated with a three-fold serial dilution series of the compounds in DMSO. The final DMSO concentration in all wells was 1% and DMSO was used as no drug control.
The HBsAg chemiluminescence immunoassay (CLIA) kit (Autobio Diagnostics Co., Zhengzhou, China, Catalog number: CL0310-2) was used to measure the levels of secreted HBV antigens semi-quantitatively. For the detection 50 μL/well culture supernatant was used and HBsAg was quantified using HBsAg chemiluminescence immunoassay (CLIA) kit (Autobio Diagnostics Co., Zhengzhou, China, Catalog number: CL0310-2), 50 μL of the supernatant was transferred to the CLIA assay plate and 50 μL of enzyme conjugate reagent was added into each well. The plates were sealed and gently agitated for 1 hour at room temperature. The supernatant-enzyme-mixture was discarded and wells were washed 6 times with 300 μL of PBS. The residual liquid was removed by plating the CLIA plate […] on absorbent tissue paper. 25 μL of substrates A and B were added to each well. Luminance was measured using a luminometer (Mithras LB 940 Multimode Microplate Reader) after 10 minutes incubation. Dose-response curves were generated and the IC50 value was extrapolated by using the E-WorkBook Suite (ID Business Solutions Ltd., Guildford, UK). The IC50 was defined as the compound concentration (or conditioned media log dilution) at which HBsAg secretion was reduced by 50% compared to the no drug control.

**Q.** `CN(C(=O)CN1N=C(c2ccc(C(F)(F)F)cc2)CCC1=O)c1ccc(Cl)cc1` [Example 1-44, N-(4-Chlorophenyl)-N-methyl-2-[6-oxo-3-[4-(trifluoromethyl)phenyl]-4,5-dihydropyridazin-1-yl]acetamide] was tested. Which IC50 did it give?
**A.** 0.96 µM

**Q.** With `CN(C(=O)CN1N=C(c2ccc(Cl)cc2)CCC1=O)c1ccc(C(F)(F)F)c(F)c1` [Example 1-3, 2-[3-(4-Chlorophenyl)-6-oxo-4,5-dihydropyridazin-1-yl]-N-[3-fluoro-4-(trifluoromethyl)phenyl]-N-methyl-acetamide] as the molecule, how does the IC50 read?
**A.** 0.301 µM

**Q.** `CN(C(=O)CN1N=C(c2ccc(Cl)cc2)CCC1=O)c1ccc(Cl)cc1` [Example 1-1, N-(4-Chlorophenyl)-2-[3-(4-chlorophenyl)-6-oxo-4,5-dihydropyridazin-1-yl]-N-methyl-acetamide] was tested. Which IC50 did it give?
**A.** 1.58 µM

**Q.** `CN(C(=O)CN1N=C(c2ccc(Cl)cc2)CCC1=O)c1ccc(C(=O)NC2CCCCC2)cc1` [Example 1-15, 4-[[2-[3-(4-Chlorophenyl)-6-oxo-4,5-dihydropyridazin-1-yl]acetyl]-methyl-amino]-N-cyclohexyl-benzamide] was tested. Which IC50 did it give?
**A.** 5.24 µM

**Q.** With `Cc1cccc(N(C)C(=O)CN2N=C(c3ccc(Cl)cc3)CCC2=O)c1` [Example 1-21, 2-[3-(4-Chlorophenyl)-6-oxo-4,5-dihydropyridazin-1-yl]-N-methyl-N-(m-tolyl)acetamide] as the molecule, how does the IC50 read?
**A.** 2.08 µM

**Q.** Which IC50 does the source give for `CN(C(=O)CN1N=C(c2ccc(Br)cc2)CCC1=O)c1ccc(Cl)cc1` [Example 1-50, 2-[3-(4-Bromophenyl)-6-oxo-4,5-dihydropyridazin-1-yl]-N-(4-chlorophenyl)-N-methyl-acetamide] here?
**A.** 1.23 µM

**Q.** With `CN(C(=O)CN1N=C(c2ccc(C(F)(F)F)cc2)CCC1=O)c1cccc(Cl)c1` [Example 1-39, N-(3-Chlorophenyl)-N-methyl-2-[6-oxo-3-[4-(trifluoromethyl)phenyl]-4,5-dihydropyridazin-1-yl]acetamide] as the molecule, how does the IC50 read?
**A.** 0.369 µM

**Q.** Which IC50 does the source give for `CN(C(=O)CN1N=C(c2ccc(Cl)cc2)CCC1=O)c1cccc(Cl)c1` [Example 1-18, N-(3-Chlorophenyl)-2-[3-(4-chlorophenyl)-6-oxo-4,5-dihydropyridazin-1-yl]-N-methyl-acetamide] here?
**A.** 0.9 µM

**Q.** How did the IC50 turn out when `CN(C(=O)CN1N=C(c2ccc(F)cc2)CCC1=O)c1ccc(Cl)cc1` [Example 1-48, N-(4-Chlorophenyl)-2-[3-(4-fluorophenyl)-6-oxo-4,5-dihydropyridazin-1-yl]-N-methyl-acetamide] was run?
**A.** 1.88 µM

**Q.** `CN(C(=O)CN1N=C(c2ccc(Cl)cc2)CCC1=O)c1cccc(C(F)(F)F)c1` [Example 1-19, 2-[3-(4-Chlorophenyl)-6-oxo-4,5-dihydropyridazin-1-yl]-N-methyl-N-[3-(trifluoromethyl)phenyl]acetamide] was tested. Which IC50 did it give?
**A.** 1 µM

**Q.** How did the IC50 turn out when `CN(C(=O)CN1N=C(c2cccc(Cl)c2)CCC1=O)c1ccc(Cl)cc1` [Example 1-57, N-(4-Chlorophenyl)-2-[3-(3-chlorophenyl)-6-oxo-4,5-dihydropyridazin-1-yl]-N-methyl-acetamide] was run?
**A.** 3.02 µM

**Q.** Which IC50 does the source give for `CC(C)N(C(=O)c1ccc(N(C)C(=O)CN2N=C(c3ccc(Cl)cc3)CCC2=O)cc1)C(C)C` [Example 1-12, 4-[[2-[3-(4-Chlorophenyl)-6-oxo-4,5-dihydropyridazin-1-yl]acetyl]-methyl-amino]-N,N-diisopropyl-benzamide] here?
**A.** 0.885 µM

**Q.** With `CN(C(=O)CN1N=C(c2ccc(F)cc2)CCC1=O)c1ccccc1` [Example 1-47, 2-[3-(4-Fluorophenyl)-6-oxo-4,5-dihydropyridazin-1-yl]-N-methyl-N-phenyl-acetamide] as the molecule, how does the IC50 read?
**A.** 8.93 µM

**Q.** `CN(C(=O)CN1N=C(c2ccc(Br)cc2)CCC1=O)c1ccc(C(F)(F)F)cc1` [Example 1-51, 2-[3-(4-Bromophenyl)-6-oxo-4,5-dihydropyridazin-1-yl]-N-methyl-N-[4-(trifluoromethyl)phenyl]acetamide] was tested. Which IC50 did it give?
**A.** 1.16 µM

**Q.** With `COc1cccc(N(C)C(=O)CN2N=C(c3ccc(Cl)cc3)CCC2=O)c1` [Example 1-5, 2-[3-(4-Chlorophenyl)-6-oxo-4,5-dihydropyridazin-1-yl]-N-(3-methoxyphenyl)-N-methyl-acetamide] as the molecule, how does the IC50 read?
**A.** 9.63 µM

**Q.** `CN(C(=O)CN1N=C(c2ccc(C(F)(F)F)cc2)CCC1=O)c1cccc(C(F)(F)F)c1` [Example 1-41, N-Methyl-2-[6-oxo-3-[4-(trifluoromethyl)phenyl]-4,5-dihydropyridazin-1-yl]-N-[3-(trifluoromethyl)phenyl]acetamide] was tested. Which IC50 did it give?
**A.** 0.25 µM

**Q.** For `CN(C(=O)CN1N=C(c2ccc(C(F)(F)F)cc2)CCC1=O)c1ccc(C(F)(F)F)cc1` [Example 1-40, N-Methyl-2-[6-oxo-3-[4-(trifluoromethyl)phenyl]-4,5-dihydropyridazin-1-yl]-N-[4-(trifluoromethyl)phenyl]acetamide], which IC50 is on record?
**A.** 0.38 µM

**Q.** For `Cc1cc(Cl)ccc1C1=NN(CC(=O)N(C)c2cccc(F)c2)C(=O)CC1` [Example 1-28, 2-[3-(4-Chloro-2-methyl-phenyl)-6-oxo-4,5-dihydropyridazin-1-yl]-N-(3-fluorophenyl)-N-methyl-acetamide], which IC50 is on record?
**A.** 4.59 µM

**Q.** How did the IC50 turn out when `CN(C(=O)CN1N=C(c2ccc(C(F)(F)F)cc2)CCC1=O)c1cccc(F)c1` [Example 1-42, N-(3-Fluorophenyl)-N-methyl-2-[6-oxo-3-[4-(trifluoromethyl)phenyl]-4,5-dihydropyridazin-1-yl]acetamide] was run?
**A.** 0.52 µM

**Q.** `CN(C(=O)CN1N=C(c2ccc(F)cc2F)CCC1=O)c1ccc(C(F)(F)F)cc1` [Example 1-30, 2-[3-(2,4-Difluorophenyl)-6-oxo-4,5-dihydropyridazin-1-yl]-N-methyl-N-[4-(trifluoromethyl)phenyl]acetamide] was tested. Which IC50 did it give?
**A.** 0.402 µM

**Q.** `Cc1cc(Cl)ccc1C1=NN(CC(=O)N(C)c2cccc(C(F)(F)F)c2)C(=O)CC1` [Example 1-29, 2-[3-(4-Chloro-2-methylphenyl)-6-oxo-4,5-dihydropyridazin-1-yl]-N-methyl-N-[3-(trifluoromethyl)phenyl]acetamide] was tested. Which IC50 did it give?
**A.** 0.483 µM

**Q.** Which IC50 does the source give for `CN(C(=O)Cn1nc(-c2ccc(Cl)c(F)c2)ccc1=O)c1ccc(C(F)(F)F)cc1` [Example 2-2, 2-[3-(4-Chloro-3-fluorophenyl)-6-oxo-pyridazin-1-yl]-N-methyl-N-[4-(trifluoromethyl)phenyl]acetamide] here?
**A.** 0.52 µM

**Q.** How did the IC50 turn out when `CN(C(=O)CN1N=C(c2ccc(Cl)cc2)CCC1=O)c1ccc(OC(F)(F)F)cc1` [Example 1-16, 2-[3-(4-Chlorophenyl)-6-oxo-4,5-dihydropyridazin-1-yl]-N-methyl-N-[4-(trifluoromethoxy)phenyl]acetamide] was run?
**A.** 3.86 µM

**Q.** With `CN(C(=O)CN1N=C(c2ccc(Cl)cc2)CCC1=O)c1ccc(Cl)c(F)c1` [Example 1-4, N-(4-Chloro-3-fluoro-phenyl)-2-[3-(4-chlorophenyl)-6-oxo-4,5-dihydropyridazin-1-yl]-N-methyl-acetamide] as the molecule, how does the IC50 read?
**A.** 0.994 µM

**Q.** `CN(C(=O)CN1N=C(c2ccc(Cl)cc2)CCC1=O)c1ccc(F)cc1F` [Example 1-13, 2-[3-(4-Chlorophenyl)-6-oxo-4,5-dihydropyridazin-1-yl]-N-(2,4-difluorophenyl)-N-methyl-acetamide] was tested. Which IC50 did it give?
**A.** 6.61 µM

**Q.** `CN(C(=O)CN1N=C(c2ccc(Cl)c(F)c2)CCC1=O)c1cccc(F)c1` [Example 1-23, 2-[3-(4-Chloro-3-fluoro-phenyl)-6-oxo-4,5-dihydropyridazin-1-yl]-N-(3-fluorophenyl)-N-methyl-acetamide] was tested. Which IC50 did it give?
**A.** 0.46 µM

**Q.** How did the IC50 turn out when `CN(C(=O)Cn1nc(-c2ccc(Cl)cc2)ccc1=O)c1ccc(Cl)cc1` [Example 2-5, N-(4-Chlorophenyl)-2-[3-(4-chlorophenyl)-6-oxo-pyridazin-1-yl]-N-methyl-acetamide] was run?
**A.** 1.77 µM

**Q.** For `CN(C(=O)CN1N=C(c2ccc(F)cc2F)CCC1=O)c1cccc(F)c1` [Example 1-34, 2-[3-(2,4-Difluorophenyl)-6-oxo-4,5-dihydropyridazin-1-yl]-N-(3-fluorophenyl)-N-methyl-acetamide], which IC50 is on record?
**A.** 1.25 µM

**Q.** Which IC50 does the source give for `CN(C(=O)Cn1nc(-c2ccc(Cl)cc2)ccc1=O)c1ccc(C(F)(F)F)cc1` [Example 2-1, 2-[3-(4-Chlorophenyl)-6-oxo-pyridazin-1-yl]-N-methyl-N-[4-(trifluoromethyl)phenyl]acetamide] here?
**A.** 0.9 µM

**Q.** `Cc1ccc(C2=NN(CC(=O)N(C)c3ccc(Cl)cc3)C(=O)CC2)cc1` [Example 1-56, N-(4-Chlorophenyl)-N-methyl-2-[6-oxo-3-(p-tolyl)-4,5-dihydropyridazin-1-yl]acetamide] was tested. Which IC50 did it give?
**A.** 9.51 µM

**Q.** `CN(C(=O)CN1N=C(c2ccc(F)cc2F)CCC1=O)c1ccc(F)c(C(F)(F)F)c1` [Example 1-32, 2-[3-(2,4-Difluorophenyl)-6-oxo-4,5-dihydropyridazin-1-yl]-N-[4-fluoro-3-(trifluoromethyl)phenyl]-N-methyl-acetamide] was tested. Which IC50 did it give?
**A.** 0.513 µM

**Q.** For `CN(C(=O)CN1N=C(c2ccc(Cl)cc2)CCC1=O)c1cccc(F)c1` [Example 1-17, 2-[3-(4-Chlorophenyl)-6-oxo-4,5-dihydropyridazin-1-yl]-N-(3-fluorophenyl)-N-methyl-acetamide], which IC50 is on record?
**A.** 1.17 µM
